Results taken from patent US8084452B2, “Substituted enaminocarbonyl compounds used as insecticides” (Bayer Cropscience AG, priority 2006, dated 2011).

What was measured:
Assay type in all cases: in vivo
[1] = system: green peach aphid (Myzus persicae); assay: Myzus test (MYZUPE spray treatment); conditions: 500 g/ha, spray on Chinese cabbage leaf discs
Method: Myzus Test (MYZUPE Spray Treatment)
(§1) To produce a suitable preparation of active compound, 1 part by weight of active compound is mixed with the stated amounts of solvent and emulsifier, and the concentrate is diluted with emulsifier-containing water to the desired concentration.
Discs of Chinese cabbage leaves (Brassica pekinensis) which are infested by all stages of the green peach aphid (Myzus persicae) are sprayed with a preparation of active compound of the desired concentration.
After the desired period of time, the effect in % is determined 100% means that all aphids have been killed; 0% means that none of the aphids have been killed.

[2] = system: whitefly (Bemisia tabaci); assay: Bemisia tabaci (BEMITA spray treatment); conditions: 500 g/ha, spray on cotton leaf discs infested by larvae
Method: Bemisia tabaci (BEMITA Spray Treatment)
as §1
Discs of cotton leaves (Gossypium hirsutum) which are infested by larvae of the whitefly (Bemisia tabaci) are sprayed with a preparation of active compound of the desired concentration.
After the desired period of time, the effect in % is determined 100% means that all whiteflies have been killed; 0% means that none of the whiteflies have been killed.

[3] = system: adult fleas (Ctenocephalides felis); assay: Ctenocephalides felis; oral (CTECFE); conditions: 100 ppm in citrated cattle blood
Method: Ctenocephalides felis; Oral (CTECFE)
To produce a suitable preparation of active compound, 1 part by weight of active compound is mixed with the stated amount of solvent. Part of the concentrate is diluted with citrated cattle blood, and the desired concentration is prepared.
20 unfed adult fleas (Ctenocephalides felis) are placed into a chamber whose top and bottom ends are closed with gauze. A metal cylinder whose bottom end is closed with parafilm is placed onto the chamber. The cylinder contains the blood/active compound preparation, which can be taken up by the fleas through the parafilm membrane. The blood is warmed to 37° C., but the flea chamber is at room temperature.
After the desired period of time, the kill in % is determined 100% means that all fleas have been killed; 0% means that none of the fleas have been killed.

[4] = system: Lucilia cuprina larvae; assay: Lucilia cuprina test (LUCICU); conditions: 100 ppm, treated horse meat
Method: Lucilia cuprina Test (LUCICU)
To produce a suitable preparation of active compound, 1 part by weight of active compound is mixed with the stated amounts of solvent, and the concentrate is diluted with water to the desired concentration.
Containers containing horse meat treated with the preparation of active compound of the desired concentration are populated with Lucilia cuprina larvae.
After the desired period of time, the kill in % is determined 100% means that all larvae have been killed; 0% means that none of the larvae have been killed.

[5] = system: brown planthopper (Nilaparvata lugens); assay: Nilaparvata lugens test (NILALU hydroponic treatment); conditions: 100 g/ha (so in the source), active compound pipetted into water
Method: Nilanarvata lugens Test (NILALU Hydrononic Treatment)
as §1
The preparation of active compound is pipetted into water. […] The water is then infected with the brown planthopper (Nilaparvata lugens).
After the desired period of time, the effect in % is determined. 100% means that all planthoppers have been killed; 0% means that none of the planthoppers have been killed.

[6] = system: Meloidogyne incognita; assay: Meloidogyne test (MELGIN spray treatment); conditions: 20 ppm, nematicidal activity by formation of galls on lettuce roots
Method: Meloidogyne Test (MELGIN Spray Treatment)
(§2) To produce a suitable preparation of active compound, 1 part by weight of active compound is mixed with the stated amounts of solvent and emulsifier, and the concentrate is diluted with water to the desired concentration.
Containers are filled with sand, active compound solution, Meloidogyne incognita egg/larvae suspension and lettuce seeds. The lettuce seeds germinate and the plants develop. On the roots, galls are formed.
After the desired period of time, the nematicidal activity is determined by the formation of galls in %. 100% means that no galls were found; 0% means that the number of galls on the treated plants corresponds to that of the untreated controls.

[7] = system: green peach aphid (Myzus persicae); assay: Myzus persicae test, hydroponic treatment (MYZUPE sys.); conditions: 20 ppm in water, pea plant
Method: Myzus persicae Test, Hydroponic Treatment (MYZUPE Sys.)
as §2
The preparation of active compound is mixed with water. The stated concentration refers to the amount of active compound per volume unit of water (mg/l=ppm). The treated water is filled into containers housing a pea plant (Pisum sativum) which is then infected with the green peach aphid (Myzus persicae).
(§3) After the desired period of time, the kill in % is determined. 100% means that all aphids have been killed; 0% means that none of the aphids have been killed.

[8] = system: cotton aphid (Aphis gossypii); assay: Aphis gossypii test (APHIGO), leaf dip; conditions: 100 ppm, cotton leaves dipped
Method: Aphis gossypii Test (APHIGO)
as §1
Cotton leaves (Gossypium hirsutum) which are heavily infested by the cotton aphid (Aphis gossypii) are treated by being dipped into the preparation of active compound of the desired concentration.
(§4) After the desired period of time, the kill in % is determined 100% means that all aphids have been killed; 0% means that none of the aphids have been killed.

[9] = system: green peach aphid (Myzus persicae); assay: Myzus persicae test (MYZUPE G), watering; conditions: 4 ppm, cabbage plants watered
Method: Myzus persicae Test; (MYZUPE G)
as §2
Cabbage plants (Brassica oleracea) which are heavily infested by the green peach aphid (Myzus persicae) are watered with a preparation of active compound of the desired concentration.
as §4

[10] = system: cotton aphid (Aphis gossypii); assay: Aphis gossypii test (APHIGO G), watering; conditions: 4 ppm, cotton plants watered
Method: Aphis gossypii Test; (APHIGO G)
as §2
Cotton plants (Gossypium hirsutum) which are heavily infested by the cotton aphid (Aphis gossypii) are watered with a preparation of active compound of the desired concentration.
as §3

[11] = system: Boophilus microplus; assay: Boophilus microplus test (BOOPMI injection); conditions: 20 μg/animal injected into abdomen, 100% means no tick has laid fertile eggs
Method: Boophilus microplus Test (BOOPMI Injection)
To produce a suitable preparation of active compound, 1 part by weight of active compound is mixed with the stated amount of solvent, and the concentrate is diluted with solvent to the desired concentration.
The solution of active compound is injected into the abdomen (Boophilus microplus), and the animals are transferred into dishes and kept in a temperature-controlled room.
After the desired period of time, the effect in % is determined. 100% means that no tick has laid any fertile eggs.

Row | Structure (SMILES) | Kill rate in % after 5 days [1] [%] | Kill rate in % after 7 days [2] [%] | Kill rate in % after 2 days [3] [%] | Kill rate in % after 2 days [4] [%] | Kill rate in % after 7 days [5] [%] | Kill rate in % after 14 days [6] [%] | Kill rate in % after 6 days [7] [%] | Kill rate in % after 6 days [8] [%] | Kill rate in % after 10 days [9] [%] | Kill rate in % after 10 days [10] [%] | Kill rate in % after 7 days [11] [%]
1 | O=C1C=C(N(Cc2cnc(Cl)c(F)c2)CC(F)F)CO1 [Example 1, 4-[[(6-Chloro-5-fluoropyridin-3-yl)methyl](2,2-difluoroethyl)amino]furan-2(5H)-one] | 100 | 100 | 80 | 100 |  |  |  |  |  |  | 
2 | O=C1C=C(N(CCF)Cc2cnc(Cl)c(Cl)c2)CO1 [Example 2, 4-[[(5,6-Dichloropyridin-3-yl)methyl](2-fluoroethyl)amino]furan-2(5H)-one] | 100 |  |  |  | 80 | 100 | 100 | 95 | 98 | 100 | 100
